Data published in US20070219212A1, “Pyranouidole Derivatives and the Use Thereof for the Treatment of Hepatitis C Virus Infection or Disease” (priority 2004, published 2007).

Assays:
[1] = biological target: T1, NS5B from the BK strain (genotype 1b) (Hepatitis C virus genotype 1b, UniProt P26663); test: Hepatitis C polymerase (NS5B, BK strain) inhibition, radioactive filter assay; type: biochemical; details: NS5B BK strain (genotype 1b)
T1 construct: NS5B from the BK strain (genotype 1b) is expressed in E coli as a protein in which the 21 C-terminal amino acids are replaced; made in house; host or cells: E. coli
T1 sequence (P26663 2420-2989): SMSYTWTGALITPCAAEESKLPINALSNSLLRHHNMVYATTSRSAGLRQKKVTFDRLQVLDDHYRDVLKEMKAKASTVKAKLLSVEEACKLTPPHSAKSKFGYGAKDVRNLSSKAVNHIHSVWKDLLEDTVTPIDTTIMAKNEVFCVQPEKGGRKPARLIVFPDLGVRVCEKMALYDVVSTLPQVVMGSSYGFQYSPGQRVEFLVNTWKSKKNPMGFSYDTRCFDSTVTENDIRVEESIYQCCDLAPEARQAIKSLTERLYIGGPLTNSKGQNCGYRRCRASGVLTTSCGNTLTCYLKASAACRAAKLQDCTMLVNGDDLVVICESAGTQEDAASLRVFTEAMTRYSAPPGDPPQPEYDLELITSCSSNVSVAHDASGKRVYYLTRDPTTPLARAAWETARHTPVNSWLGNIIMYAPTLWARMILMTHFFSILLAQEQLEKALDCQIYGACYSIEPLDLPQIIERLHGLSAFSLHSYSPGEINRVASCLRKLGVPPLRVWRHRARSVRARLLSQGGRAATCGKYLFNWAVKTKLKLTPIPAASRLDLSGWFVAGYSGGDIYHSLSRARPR
From the text: (§1) The ability of the compounds of the present invention to inhibit Hepatitis C Polymerase was established by the following experimental procedure:
NS5B from the BK strain (genotype 1b) is expressed in E coli as a protein in which the 21 C-terminal amino acids are replaced with a short linker and a hexahistidine tag ([…]). The purified protein is mixed with radioactive nucleotides and allowed to replicate a heteropolymeric RNA substrate, primed by an endogenous short hairpin, resulting in an approximately 760 nt product. The radioactive product is captured on a filter and quantitated after removal of the unincorporated nucleotides.
(§2) • 0.5M Na Phosphate buffer. Per liter, weigh 134 gr Na2HPO4.7H2O, add water to 900 ml. Adjust pH to 7.0 with phosphoric acid. Top off with water to 1 L. • Dilute nucleotides 1:1000 to 10 μM (GTP and CTP) or 1:100 to 100 μM (ATP and UTP) into RNase free water. Procedure: • (1) Compounds 10 μl at […] in 15% dimethylsulfoxide (DMSO) When starting from 100 μg/ml compound stock in 1% DMSO: Dispense 5 μl 30% DMSO per well Dispense 5 μl compound (100 μg/ml) per well. When starting from 50 μg/ml compound stock in 15% DMSO: Add 10 μl compound per well.
(§3) Add 20 μl enzyme mix into each well of the assay plate. Incubate compound and enzyme at room temperature for 15 minutes • (3) Template mix—prepare ahead
(§4) Spin down a tube of RNA (5 μg/tube stored in 75% ethanol and 0.3 M sodium acetate) in a microcentrifuge for 20 minutes at 4° C. One tube is enough for 1-1.5 plates. Remove as much ethanol from the tube as possible by inverting the tube. Be gentle, pellet RNA may not adhere to the tube. Vacuum dry the RNA. Resuspend the RNA by adding 1 ml of DEPC water, close the cap of the tube tightly. To dissolve RNA, incubate RNA solution on ice for ˜60 minutes and gently vortex. Spin briefly to ensure all RNA solution is down to the bottom of the tube before opening cap. Gently transfer RNA solution into a 5 ml or larger tube. Add another 3 ml of DEPC water (total 4 ml of volume).
(§5) Add the following volumes of reagents
(§6) Add 20 μl template mix per reaction (i.e. 20 ng of pOF per reaction or ˜3 nM) • (4) Incubate reaction at room temperature (22-25° C.) for 2 hours. • (5) Stop reaction by adding 50 μl of 170 mM EDTA.
(§7) Final concentration of EDTA is 85 mM. • (6) Prewet filters of Millipore multiscreen assay plate by adding 200 μl of 0.5 M sodium phosphate buffer, pH 7.0 into each well. Let stand at room temperature for 2-3 minutes. • (7) Place the multiscreen filter plate onto a Millipore Manifold and turn on vacuum to allow buffer to flow through. Turn off vacuum. Transfer 80 μl of the reaction product into each well of the filter plate. Let stand for 2-3 minutes. Turn on vacuum to filter reaction product. • (8) Turn off vacuum. Add 200 μl of 0.5 M sodium phosphate buffer, pH 7.0 into each well to wash filter. Turn on vacuum.
(§8) Repeat step (8) three more times. • (9) Remove polypropylene bottom. Spot dry filter at the bottom with paper towel. Air dry filter plate on a bench for 1 hour. Add 40 μl Super Mix scintillant. Seal top of the plate with a tape. Place plate into a Packard carrier or micro-beta carrier. • (10) Count plate using a Packard Topcount or micro-beta counter. Count (for example using Program 10) for ^33P in Top count or ^33P program in micro-beta.
(§9) See, Ferrari et al. 1999. J. Virology 73:1649-1654: “Characterization of soluble Hepatitis C virus RNA-dependent RNA polymerase expressed in E. coli and Takamizawa et al. 1991” and J. Virology 65:1105-1113: “Structure and characterization of the Hepatitis C virus genome isolated from human carriers,” both references are hereby incorporated by reference.

[2] = biological target: BB7 RNA-dependent RNA polymerase hepatitis C virus protein (Con1 HCV sequence) (Hepatitis C virus genotype 1b, UniProt Q9WMX2); test: Hepatitis C polymerase (BB7) inhibition; type: biochemical
BB7 RNA-dependent RNA polymerase hepatitis C virus protein (Con1 HCV sequence), sequence (Q9WMX2 2420-3010): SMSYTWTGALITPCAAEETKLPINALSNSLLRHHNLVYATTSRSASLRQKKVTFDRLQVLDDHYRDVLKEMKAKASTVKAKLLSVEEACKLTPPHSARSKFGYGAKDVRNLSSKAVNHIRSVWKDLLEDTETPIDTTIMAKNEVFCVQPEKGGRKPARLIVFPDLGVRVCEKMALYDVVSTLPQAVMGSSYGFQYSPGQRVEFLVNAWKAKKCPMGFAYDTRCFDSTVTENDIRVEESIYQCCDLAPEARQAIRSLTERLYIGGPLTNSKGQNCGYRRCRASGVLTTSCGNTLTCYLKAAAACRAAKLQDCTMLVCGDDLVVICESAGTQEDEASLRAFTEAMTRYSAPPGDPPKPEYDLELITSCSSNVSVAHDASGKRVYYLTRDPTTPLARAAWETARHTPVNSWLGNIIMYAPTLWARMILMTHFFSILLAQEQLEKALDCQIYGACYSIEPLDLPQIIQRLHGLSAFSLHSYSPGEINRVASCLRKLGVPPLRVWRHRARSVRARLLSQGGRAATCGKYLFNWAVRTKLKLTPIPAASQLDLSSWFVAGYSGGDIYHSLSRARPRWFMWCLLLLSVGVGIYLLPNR
From the text: For purposes of this invention, the term “BB7” denotes an RNA-dependent RNA polymerase hepatitis C virus protein sequence which is derived from HCV replicon. A discussion of BB7 and related technology can be found in Blight, K. et al. (2000) Science 290:1972-1974. BB7 can be licensed from Apath, LLC (893 North Warson Road, Saint Louis Mo. 63141, USA). BB7 is also referred to as Con1 HCV sequence and discussions of Con1 can be found in the following references: Lohmann, V. et al. (1999) Science 285:110-113; Pietschmann, T. et al. (2001) J. Virol. […]:1252-1264; Lohmann, V. et al. (2001) J. Virol. 75:1437-1449.
as §1, §2, §3, §4, §5, §6, §7, §8, §9

SMILES	IC50 [1] [µM]	IC50 [2] [µM]
CCCC1(CC(=O)O)OCCc2c1[nH]c1c(C)c(CO[C@H]3CCOC3)cc(C#N)c21 (mixture of isomers) [Example 13, (3′S,1S*)[5-Cyano-8-methyl-1-propyl-7-(tetrahydro-furan-3-yloxymethyl)-1,3,4,9-tetrahydro-pyrano[3,4-b]indol-1-yl]-acetic acid]	0.5 to 5	0.5 to 5
CCCC1(CC(=O)O)OCCc2c1[nH]c1c(C)c(CO[C@@H]3CCOC3)cc(C#N)c21 (mixture of isomers) [Example 14, (3′R,1S*)[5-Cyano-8-methyl-1-propyl-7-(tetrahydro-furan-3-yloxymethyl)-1,3,4,9-tetrahydro-pyrano[3,4-b]indol-1-yl]-acetic acid]	0.5 to 5	0.5 to 5
CCOCCOc1cc(C#N)c2c3c([nH]c2c1C)C(CC(=O)O)([C@@H](C)CC)OCC3 (mixture of isomers) [Example 33, (1R*,10S)-[1-sec-Butyl-5-cyano-7-(2-ethoxy-ethoxy)-8-methyl-1,3,4,9-tetrahydro-pyrano[3,4-b]indol-1-yl]-acetic acid]	< 0.5	< 0.5
CC[C@H](C)C1(CC(=O)O)OCCc2c1[nH]c1c(C)c(OCCOC(C)C)cc(C#N)c21 (mixture of isomers) [Example 34, (1R*,10S)-[1-sec-Butyl-5-cyano-7-(2-isopropoxy-ethoxy)-8-methyl-1,3,4,9-tetrahydro-pyrano[3,4-b]indol-1-yl]-acetic acid]	< 0.5	< 0.5
CC[C@H](C)C1(CC(=O)O)OCCc2c1[nH]c1c(C)c(OCc3nsc(N(C)C)n3)cc(C#N)c21 (mixture of isomers) [Example 35, (1R*,10S)-[1-sec-Butyl-5-cyano-7-(5-dimethylamino-[1,2,4]thiadiazol-3-ylmethoxy)-8-methyl-1,3,4,9-tetrahydro-pyrano[3,4-b]indol-1-yl]-acetic acid]	< 0.5	< 0.5
CCCC1(CC(=O)O)OCCc2c1[nH]c1c(C)c(CO)cc(C#N)c21 (stereo not shown) [Example 1, (5-Cyano-7-hydroxymethyl-8-methyl-1-propyl-1,3,4,9-tetrahydro-pyrano[3,4-b]indol-1-yl)-acetic acid]	< 0.5	< 0.5
CCCC1(CC(=O)O)OCCc2c1[nH]c1c(C)c(COC)cc(C#N)c21 (stereo not shown) [Example 2, (5-Cyano-7-methoxymethyl-8-methyl-1-propyl-1,3,4,9-tetrahydro-pyrano[3,4-b]indol-1-yl)-acetic acid]	0.5 to 5	< 0.5
CCCC1(CC(=O)O)OCCc2c1[nH]c1c(C)c(COCC)cc(C#N)c21 (stereo not shown) [Example 3, (5-Cyano-7-ethoxymethyl-8-methyl-1-propyl-1,3,4,9-tetrahydro-pyrano[3,4-b]indo-1-yl)-acetic acid]	0.5 to 5	< 0.5
CCCOCc1cc(C#N)c2c3c([nH]c2c1C)C(CCC)(CC(=O)O)OCC3 (stereo not shown) [Example 4, (5-Cyano-8-methyl-7-propoxymethyl-1-propyl-1,3,4,9-tetrahydro-pyrano[3,4-b]indol-1-yl)-acetic acid]	0.5 to 5	< 0.5
CCCC1(CC(=O)O)OCCc2c1[nH]c1c(C)c(COC(C)C)cc(C#N)c21 (stereo not shown) [Example 5, (5-Cyano-7-isopropoxymethyl-8-methyl-1-propyl-1,3,4,9-tetrahydro-pyrano[3,4-b]indol-1-yl)-acetic acid]	0.5 to 5	< 0.5
CCCC1(CC(=O)O)OCCc2c1[nH]c1c(C)c(COC3CCC3)cc(C#N)c21 (stereo not shown) [Example 6, (5-Cyano-7-cyclobutoxymethyl-8-methyl-1-propyl-1,3,4,9-tetrahydro-pyrano[3,4-b]indol-1-yl)-acetic acid]	0.5 to 5	< 0.5
CCCC1(CC(=O)O)OCCc2c1[nH]c1c(C)c(COC3CCCCC3)cc(C#N)c21 (stereo not shown) [Example 7, (5-Cyano-7-cyclohexyloxymethyl-8-methyl-1-propyl-1,3,4,9-tetrahydro-pyrano[3,4-b]indol-1-yl)-acetic acid]	0.5 to 5	0.5 to 5
CCCC1(CC(=O)O)OCCc2c1[nH]c1c(C)c(COCC3CC3)cc(C#N)c21 (stereo not shown) [Example 8, (5-Cyano-7-cyclopropylmethoxymethyl-8-methyl-1-propyl-1,3,4,9-tetrahydro-pyrano[3,4-b]indol-1-yl)-acetic acid]	0.5 to 5	< 0.5
CCCC1(CC(=O)O)OCCc2c1[nH]c1c(C)c(COCC3CCC3)cc(C#N)c21 (stereo not shown) [Example 9, (5-Cyano-7-cyclobutylmethoxymethyl-8-methyl-1-propyl-1,3,4,9-tetrahydro-pyrano[3,4-b]indol-1-yl)-acetic acid]	0.5 to 5	0.5 to 5
CCCC1(CC(=O)O)OCCc2c1[nH]c1c(C)c(COCC3CCCC3)cc(C#N)c21 (stereo not shown) [Example 10, (5-Cyano-7-cyclopentylmethoxymethyl-8-methyl-1-propyl-1,3,4,9-tetrahydro-pyrano[3,4-b]indol-1-yl)-acetic acid]	0.5 to 5	0.5 to 5
CC#CCOCc1cc(C#N)c2c3c([nH]c2c1C)C(CCC)(CC(=O)O)OCC3 (stereo not shown) [Example 11, (7-But-2-ynyloxymethyl-5-cyano-8-methyl-1-propyl-1,3,4,9-tetrahydro-pyrano[3,4-b]indol-1-yl)-acetic acid]	0.5 to 5	0.5 to 5
CCCC1(CC(=O)O)OCCc2c1[nH]c1c(C)c(COCc3ccc4c(c3)OCO4)cc(C#N)c21 (stereo not shown) [Example 16, [7-(Benzo[1,3]dioxol-5-ylmethoxymethyl)-5-cyano-8-methyl-1-propyl-1,3,4,9-tetrahydro-pyrano[3,4-b]indol-1-yl]-acetic acid]	0.5 to 5	< 0.5
CCCC1(CC(=O)O)OCCc2c1[nH]c1c(C)c(COCc3ccc(C)cc3C)cc(C#N)c21 (stereo not shown) [Example 17, [5-Cyano-7-(2,4-dimethyl-benzyloxymethyl)-8-methyl-1-propyl-1,3,4,9-tetrahydro-pyrano[3,4-b]indol-1-yl]-acetic acid]	0.5 to 5	> 5
CCCC1(CC(=O)O)OCCc2c1[nH]c1c(C)c(COCc3ccsc3)cc(C#N)c21 (stereo not shown) [Example 18, [5-Cyano-8-methyl-1-propyl-7-(thiophen-3-ylmethoxymethyl)-1,3,4,9-tetrahydro-pyrano[3,4-b]indol-1-yl]-acetic acid]	0.5 to 5	< 0.5
CCCC1(CC(=O)O)OCCc2c1[nH]c1c(C)c(COCc3sc(C)nc3C)cc(C#N)c21 (stereo not shown) [Example 19, [5-Cyano-7-(2,4-dimethyl-thiazol-5-ylmethoxymethyl)-8-methyl-1-propyl-1,3,4,9-tetrahydro-pyrano[3,4-b]indol-1-yl]-acetic acid]	0.5 to 5	0.5 to 5
